Tests used:
[1] = system: female Sprague-Dawley rats; experiment: clozapine-induced hyperphagia (food intake) in rats; format: in vivo, rat; conditions: for Mean food intake ± SEM: 3 mg/kg orally, food intake over 2 h, n=10, vehicle 6.5 ± 0.9
Description: Experiments were performed in individually-housed female Sprague-Dawley rats with free access to food (powdered rat chow containing 20% lard) and tap water at all times. On the day of the experiment, animals (n=10) were dosed orally with vehicle; the neuroleptic clozapine 3 mg/kg; sibutramine 3 mg/kg or sibutramine plus clozapine 3 mg/kg; and their food intake was monitored over 2 h.

[2] = target: [3H]Noradenaline reuptake (Rattus norvegicus, UniProt Q9WTR4); experiment: in vitro [3H]noradrenaline reuptake inhibition in rat brain tissue; format: biochemical; conditions: means of ≧3 separate determinations

| SMILES | Mean food intake ± SEM [1] | Ki [2] | effect on food intake compared to vehicle-treated control group ([1]; 3 mg/kg po, over 2 h) |
| --- | --- | --- | --- |
| CN1CCN(C2=Nc3cc(Cl)ccc3Nc3ccccc32)CC1 [Clozapine] | 9.3 ± 0.7 g/kg | – | – |
| CC(NC(C)(C)C)C(=O)c1cccc(Cl)c1 (stereo not shown) [Bupropion] | – | 2590 nM | – |
| CC(C)CC(N(C)C)C1(c2ccc(Cl)cc2)CCC1 (stereo not shown) [Sibutramine, N,N-dimethyl-1-[1-(4-chlorophenyl)cyclobutyl]-3-methylbutylamine] | 1.7 ± 0.6 g/kg | – | significantly decreased food intake |

Source: patent US20030008897A1, “Method of controlling weight gain associated with therapeutic drugs” (priority 2000, published 2003)
